Patent US11065253B2, “Arylquinazolines” (Merck Patent GmbH, priority 2013, dated 2021)

Test system: phospho-serine 2056 DNA-PK in HCT116 cells
Assay: DNA-PK phosphorylation at serine 2056 (cellular), ELISA in bleomycin-treated HCT116 cells
Format: cell-based
Settings: Homo sapiens, HCT-116, 6 h, cellular; HCT116 cells, 10 μM bleomycin, six hours; read-out: IC50 pDNA-PK
Procedure, shortened: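 After overnight seeding, HCT116 cells received compound with 10 μM bleomycin for 6 h; phospho-DNA-PK ELISA signals were scaled to total DNA-PKcs, DMSO serving as blank.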

First: COc1nnc(C(O)c2cc(-c3ncnc4cc(N5CCOCC5)ccc34)c(F)cc2Cl)c2ccncc12 (stereo not drawn) [Example 40, [2-Chloro-4-fluoro-5-(7-morpholin-4-yl-quinazolin-4-yl)phenyl]-(4-methoxypyrido-[3,4-d}pyridazin-1-yl)-methanol]
Second: COc1cncnc1C(O)c1ccc(F)c(-c2ncnc3cc(N4CCOCC4)ccc23)c1 (stereo not drawn) [Example 87, [4-Fluoro-3-(7-morpholin-4-yl-quinazolin-4-yl)-phenyl]-(5-methoxy-pyrimidin-4-yl)-methanol]
The IC50 of the first is higher: 500 to 5000 nM for the first, under 500 nM for the second.

OC(c1ccc(F)c(-c2ncnc3cc(N4CCOCC4)ccc23)c1)c1c(F)cncc1F (stereo not drawn) [Example 1, (3,5-Difluoropyridin-4-yl)-[4-fluoro-3-(7-morpholin-4-ylquinazolin-4-yl)phenyl]methanol] and O=c1ccc(C(O)c2ccc(F)c(-c3ncnc4cc(N5CCOCC5)ccc34)c2)n[nH]1 (stereo not drawn) [Example 76, 6-{[4-Fluoro-3-(7-morpholin-4-yl-quinazolin-4-yl)phenyl]-hydroxymethyl}-2H-pyridazin-3-one] fall in the same range of IC50: 500 to 5000 nM for the first, 500 to 5000 nM for the second.

COc1ccc(C(OC)c2ccc(F)c(-c3ncnc4cc(N5CCOCC5)ccc34)c2)nn1 (stereo not drawn) [Example 73, 4-{2-Fluoro-5-[methoxy-(6-methoxy-pyridazin-3-yl)methyl]phenyl}-7-morpholin-4-yl-quinazoline] and COc1ccc([C@H](O)c2ccc(F)c(-c3ncnc4cc(N5CCOCC5)ccc34)c2)nn1 [Example 71, (R)-[4-Fluoro-3-(7-morpholin-4-yl-quinazolin-4-yl)phenyl]-(6-methoxypyridazin-3-yl)methanol] fall in the same range of IC50: 500 to 5000 nM for the first, 500 to 5000 nM for the second.

Same assay, conditions: Homo sapiens, HCT-116, cellular DNA-PK phosphorylation at serine 2056, HCT116 cells; read-out: IC50 pDNA-PK

Work on COc1nccnc1C(O)c1cc(-c2ncnc3cc(N4CCOCC4)ccc23)ccc1F (stereo not drawn) [Example 394, [2-Fluoro-5-(7-morpholin-4-yl-quinazolin-4-yl)-phenyl]-(3-methoxy-pyrazin-2-yl)-methanol] yielded an IC50 of 500 to 5000 nM.

Same assay, conditions: Homo sapiens, HCT-116, phospho-serine 2056 DNA-PK, bleomycin-treated HCT116 cells; class symbols A-D; read-out: IC50 pDNA-PK

OCc1csc([C@@H](O)c2cc(-c3ncnc4cc(N5CCOCC5)ccc34)c(F)cc2Cl)n1 [Example 185, (S)-[2-Chloro-4-fluoro-5-(7-morpholin-4-yl-quinazolin-4-yl)-phenyl]-(4-hydroxymethyl-thiazol-2-yl)-methanol] showed an IC50 of 500 to 5000 nM.

Same assay, conditions: Homo sapiens, HCT-116, phospho-serine 2056 DNA-PK, bleomycin-treated HCT116 cells; read-out: IC50 pDNA-PK

First: Cc1nccnc1C(C(N)=O)c1cc(-c2ncnc3cc(N4CCOCC4)ccc23)c(F)cc1F (stereo not drawn) [Example 329, 2-[2,4-Difluoro-5-(7-morpholin-4-yl-quinazolin-4-yl)-phenyl]-2-(3-methyl-pyrazin-2-yl)-acetamide]
Second: Cc1cnc(C(C(N)=O)c2cc(-c3ncnc4cc(N5CCOCC5)ccc34)c(F)cc2Cl)c(C)n1 (stereo not drawn) [Example 301, 2-[2-Chloro-4-fluoro-5-(7-morpholin-4-yl-quinazolin-4-yl)-phenyl]-2-(3,5-dimethyl-pyrazin-2-yl)acetamide]
The IC50 of the first is higher: 5000 to 10000 nM for the first, 500 to 5000 nM for the second. The second is the more potent here.

With OC(c1cc(-c2ncnc3cc(N4CCOCC4)ccc23)c(F)cc1F)c1nncc2sccc12 (stereo not drawn) [Example 341, [2,4-Difluoro-5-(7-morpholin-4-yl-quinazolin-4-yl)-phenyl]thieno[2,3-d}-pyridazin-4-yl-methanol] the IC50 was under 500 nM.

Same assay, conditions: cellular DNA-PK phosphorylation at serine 2056, HCT116 cells; read-out: IC50 pDNA-PK

O[C@@H](c1cc(-c2ncnc3cc(N4CCOCC4)ccc23)c(F)cc1Cl)c1nccn2ccnc12 (single isomer, unassigned) [Example 396] and Cn1c(C(O)c2cc(-c3ncnc4cc(N5CCOCC5)ccc34)c(F)cc2Cl)cccc1=O (stereo not drawn) [Example 435, 6-{[2-Chloro-4-fluoro-5-(7-morpholin-4-yl-quinazolin-4-yl)-phenyl]hydroxy-methyl}-1-methyl-1H-pyridin-2-one] cannot be ordered by IC50: under 500 nM for the first, under 500 nM for the second.

First: OC(c1ccc(F)c(-c2ncnc3cc(N4CCOCC4)ccc23)c1)c1nccnc1I (stereo not drawn) [Example 462, [4-Fluoro-3-(7-morpholin-4-yl-quinazolin-4-yl)-phenyl]-(3-iodo-pyrazin-2-yl)-methanol]
Second: OC(c1ccc(F)c(-c2ncnc3cc(N4CCOCC4)ccc23)c1)c1nccnc1OC(F)F (stereo not drawn) [Example 464, (3-Difluoromethoxy-pyrazin-2-yl)-[4-fluoro-3-(7-morpholin-4-yl-quinazolin-4-yl)-phenyl]methanol]
The IC50 of the first is lower: under 500 nM for the first, 500 to 5000 nM for the second. The first is the more potent here.
